Where two headings read alike, the source gives them in different places. Bounds are passed on as bounds.

This note sets out measurements from patent publication US11066414B2, “Cot modulators and methods of use thereof” (Gilead Sciences, Inc., priority 2015, dated 2021).

One assay addresses Human Cot (Homo sapiens (Human), UniProt P41279). The experiment in a line: High Throughput Cot Biochemical Assay. To be noted: for IC50/EC50 [nM]: IC50 (Cot): first value of the cell IC50/EC50, recombinant human Cot catalytic domain, TR-FRET. On the technique in general: In TR-FRET formats the signal depends on donor and acceptor labels being close together.
A further assay deals with EGFR (Homo sapiens (Human), UniProt P00533). The assay is described as follows: High Throughput EGFR Biochemical Assay. Particulars: Human EGFR cytoplasmic domain, TR-FRET. The method, then: Example 42: High Throughput EGFR Biochemical Assay
Chain of EGFR (P00533 669-1210): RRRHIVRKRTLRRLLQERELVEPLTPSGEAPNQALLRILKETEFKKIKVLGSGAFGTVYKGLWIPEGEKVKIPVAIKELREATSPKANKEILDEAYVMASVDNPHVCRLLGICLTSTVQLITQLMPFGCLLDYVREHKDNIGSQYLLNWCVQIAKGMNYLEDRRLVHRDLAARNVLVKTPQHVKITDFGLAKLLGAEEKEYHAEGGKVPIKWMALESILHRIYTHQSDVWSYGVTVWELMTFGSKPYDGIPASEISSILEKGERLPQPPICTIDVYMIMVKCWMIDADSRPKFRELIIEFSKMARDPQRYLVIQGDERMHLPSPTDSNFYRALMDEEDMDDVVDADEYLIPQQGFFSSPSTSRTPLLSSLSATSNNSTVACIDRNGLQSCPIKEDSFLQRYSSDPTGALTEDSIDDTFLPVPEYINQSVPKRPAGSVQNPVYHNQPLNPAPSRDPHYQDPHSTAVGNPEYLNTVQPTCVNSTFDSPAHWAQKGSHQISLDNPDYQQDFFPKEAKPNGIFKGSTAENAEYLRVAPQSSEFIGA
EGFR activity was measured using KinEASE (Cisbio), a time-resolved fluorescence resonance energy transfer (TR-FRET) immunoassay. In this assay, EGFR-catalyzes the phosphorylation of a universal Tyrosine kinase peptide substrate labeled with XL665. Europium conjugated phosphor-tyrosine specific antibody binds the resulting phosphorylated peptide. Formation of phosphorylated peptide is quantified by TR-FRET with Europium as the donor and XL665 the acceptor. The assay was performed in two main steps. The first step is the kinase reaction step and the second step is the detection step with TR-FRET reagents. In brief, test compounds 1:3 serially diluted in DMSO were delivered into Corning white, low volume, non-binding 384 well plates using the Echo 550 acoustic liquid dispenser (Labcyte®). […] After 60 min of incubation at room temperature, 10 μL of Stop and Detect Solution (1:400 Europium Cryptate labeled anti-phosphorylated peptide antibody solution and 125 nM strepavidin-XL665 Tracer in a 50 mM Hepes pH 7.0 detection buffer containing sufficient EDTA) was added.

Another assay relates to TNFα. The assay is described as follows: Cot Monocyte TNFα Cell Based Assay. Particulars: for EC50: Homo sapiens, Monocyte; for IC50/EC50 [nM]: EC50 (TNFα): second value of the cell IC50/EC50, LPS-stimulated human monocytes, TNFα by TR-FRET.
The mark [1] stands for this setting: read-out: EC50 TNF, LPS-stimulated human monocytes, TNFα.

Chain of Human Cot (P41279 30-397): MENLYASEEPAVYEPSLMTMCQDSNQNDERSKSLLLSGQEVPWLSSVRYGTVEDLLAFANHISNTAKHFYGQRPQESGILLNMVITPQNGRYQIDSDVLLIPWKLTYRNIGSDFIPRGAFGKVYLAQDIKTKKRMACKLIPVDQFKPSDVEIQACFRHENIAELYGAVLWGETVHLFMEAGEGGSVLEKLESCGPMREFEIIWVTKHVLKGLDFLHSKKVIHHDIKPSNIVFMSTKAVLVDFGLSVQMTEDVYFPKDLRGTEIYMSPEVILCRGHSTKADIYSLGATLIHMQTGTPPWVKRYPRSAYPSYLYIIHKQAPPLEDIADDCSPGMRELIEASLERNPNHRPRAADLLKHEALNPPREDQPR

What is called IC50 is the concentration at which inhibition is half-maximal. For orientation: EC50 means the concentration at which the effect is half-maximal. For `CCN1CCC(n2cc([C@@H](Nc3cc(Cl)c4ncc(C#N)c(Nc5ccc(F)c(Cl)c5)c4c3)c3cccnc3)nn2)CC1` [Example 362, (S)-8-chloro-4-((3-chloro-4-fluorophenyl)amino)-6-(((1-(1-ethylpiperidin-4-yl)-1H-1,2,3-triazol-4-yl)(pyridin-3-yl)methyl)amino)-quinoline-3-carbonitrile], the IC50 was determined as 1 nM against Human Cot (IC50 HTRF, Cot HTRF (TR-FRET) biochemical assay) and 3.98 µM against EGFR. For the same compound, at Human Cot (400 μM ATP), the “IC50/EC50 [nM]: IC50 (Cot)” value is listed as 1 nM. Besides, in the assay with TNFα (setting [1]), the 50% effective concentration (EC50) came out at 46 nM. The “IC50/EC50 [nM]: EC50 (TNFα)” value with TNFα was determined as 46 nM.
With `Cn1cc([C@@H](Nc2cc(Cl)c3ncc(C#N)c(Nc4ccc(F)c(Cl)c4)c3c2)c2cccnc2)nn1` [Example 406, (S)-8-chloro-4-((3-chloro-4-fluoro-phenyl)amino)-6-(((1-methyl-1H-1,2,3-triazol-4-yl)(pyridin-3-yl)-methyl)amino)quinoline-3-carbonitrile], the “IC50/EC50 [nM]: IC50 (Cot)” value at Human Cot (400 μM ATP) came out at 3 nM. The concentration for half-maximal inhibition (IC50) on Human Cot (read-out: IC50 HTRF, Cot HTRF (TR-FRET) biochemical assay) was 3 nM; at EGFR it was above 10 µM. Also, in the assay on TNFα (setting [1]), the EC50 amounted to 102 nM. In addition, the “IC50/EC50 [nM]: EC50 (TNFα)” value with TNFα came to 102 nM.
On Human Cot (IC50 HTRF, Cot HTRF (TR-FRET KinEASE) biochemical assay, 400 μM ATP), `Cc1ncsc1[C@H](Nc1cc(C#N)c2ncc(C#N)c(NCC(C)(C)C)c2c1)c1cn(C2(C(F)(F)F)CC2)nn1` [Example 904, (R)-6-(((4-methylthiazol-5-yl)(1-(1-(trifluoromethyl)cyclopropyl)-1H-1,2,3-triazol-4-yl)methyl)amino)-4-(neopentylamino)quinoline-3,8-dicarbonitrile] registered an IC50 of 5 nM. In addition, in the assay with TNFα (read-out: EC50 TNF, LPS-stimulated human monocytes, TNFα TR-FRET), the EC50 was 78 nM.
